We go through 12 compounds from patent US9540391B2, “Isomannide derivatives as inhibitors of soluble epoxide hydrolase” (SANOFI, priority 2013, dated 2017).

What is called IC50 is the concentration that gives 50% inhibition.

Structures are written as SMILES.

This experiment has as its target T1, recombinant sEH (Homo sapiens, UniProt P34913).
T1 construct: made in house; host or cells: Sf9 insect cells
T1 sequence (P34913 1-555): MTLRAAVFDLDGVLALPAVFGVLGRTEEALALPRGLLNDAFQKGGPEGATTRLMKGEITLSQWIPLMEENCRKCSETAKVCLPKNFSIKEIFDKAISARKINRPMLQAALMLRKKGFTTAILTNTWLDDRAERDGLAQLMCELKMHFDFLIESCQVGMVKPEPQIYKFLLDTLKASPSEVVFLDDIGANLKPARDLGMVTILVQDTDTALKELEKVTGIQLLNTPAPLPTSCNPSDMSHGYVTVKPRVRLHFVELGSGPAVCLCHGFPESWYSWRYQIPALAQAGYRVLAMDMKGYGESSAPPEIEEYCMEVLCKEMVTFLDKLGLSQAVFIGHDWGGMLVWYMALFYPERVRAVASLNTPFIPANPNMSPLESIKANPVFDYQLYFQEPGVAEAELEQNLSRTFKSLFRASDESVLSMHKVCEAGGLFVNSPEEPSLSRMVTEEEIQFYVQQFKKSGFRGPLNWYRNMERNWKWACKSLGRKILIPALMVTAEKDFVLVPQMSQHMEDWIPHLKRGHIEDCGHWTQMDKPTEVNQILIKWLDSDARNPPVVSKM
Kind of experiment: biochemical screening assay for inhibition of soluble epoxide hydrolase (fluorometric, Phome substrate). The essentials: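 Human sEH from Sf9 cells (2 nM final) was pre-incubated 15 min at 30 °C with compound (0.0001–10 μM), then reacted 60 min at 30 °C with 5 μM Phome in 25 mM Hepes/0.01% albumin. Fluorescence of released 6-methoxy-2-naphthaldehyde was read before substrate and at end; IC50 from % inhibition.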

`O=C(NC1CCCCC1)N[C@H]1CO[C@H]2[C@@H]1OC[C@@H]2Oc1cc(Br)ccc1Cl` [Example 147, 1-[(3S,3aR,6S,6aS)-6-(5-Bromo-2-chloro-phenoxy)-hexahydro-furo[3,2-b]furan-3-yl]-3-cyclohexyl-urea]: the IC50 came to 2 nM.

Consider `COC(=O)c1ccc2cc(O[C@H]3CO[C@H]4[C@@H]3OC[C@@H]4NC(=O)NC3CCCCC3)ccc2c1` [Example 148, 6-[(3S,3aS,6S,6aR)-6-(3-Cyclohexyl-ureido)-hexahydro-furo[3,2-b]furan-3-yloxy]-naphthalene-2-carboxylic acid methyl ester], for which the IC50 turned out to be 3 nM.

Consider `CC(C)(C)NC(=O)N[C@H]1CO[C@H]2[C@@H]1OC[C@@H]2Oc1ccc(F)cc1` [Example 149, 1-tert-Butyl-3-[(3S,3aR,6S,6aS)-6-(4-fluoro-phenoxy)-hexahydro-furo[3,2-b]furan-3-yl]-urea], for which the IC50 was 2160 nM.

As for `O=C(NC1CCc2ccccc21)NC1COC2C(Oc3ccc(F)cc3)COC12` [Example 150, 1-[(3S,3aR,6S,6aS)-6-(4-Fluoro-phenoxy)-hexahydro-furo[3,2-b]furan-3-yl]-3-(S)-indan-1-yl-urea], the IC50 is 16 nM.

Consider `CC1CCC(NC(=O)N[C@H]2CO[C@H]3[C@@H]2OC[C@@H]3Oc2ccc(F)cc2)CC1` (stereo partly drawn) [Example 151, 1-[(3S,3aR,6S,6aS)-6-(4-Fluoro-phenoxy)-hexahydro-furo[3,2-b]furan-3-yl]-3-(4-methyl-cyclohexyl)-urea], for which the IC50 is 8 nM.

With `O=C(N[C@H]1CO[C@H]2[C@@H]1OC[C@@H]2Oc1ccc(F)cc1)N[C@@H]1CCC[C@H]1OCc1ccccc1` [Example 152, 1-((1R,2R)-2-Benzyloxy-cyclopentyl)-3-[(3S,3aR,6S,6aS)-6-(4-fluoro-phenoxy)-hexahydro-furo[3,2-b]furan-3-yl]-urea], the IC50 worked out at 2 nM.

`O=C(N[C@H]1CO[C@H]2[C@@H]1OC[C@@H]2Oc1ccc(F)cc1)N[C@H]1CCC[C@@H]1OCc1ccccc1` [Example 153, 1-((1S,2S)-2-Benzyloxy-cyclopentyl)-3-[(3S,3aR,6S,6aS)-6-(4-fluoro-phenoxy)-hexahydro-furo[3,2-b]furan-3-yl]-urea]: the IC50 was 62 nM.

Consider `CC[C@@H](NC(=O)N[C@H]1CO[C@H]2[C@@H]1OC[C@@H]2Oc1ccc(F)cc1)c1ccccc1` [Example 154, 1-[(3S,3aR,6S,6aS)-6-(4-Fluoro-phenoxy)-hexahydro-furo[3,2-b]furan-3-yl]-3-((R)-1-phenyl-propyl)-urea], for which the IC50 came to 51 nM.

For `COc1cccc([C@@H](C)NC(=O)N[C@H]2CO[C@H]3[C@@H]2OC[C@@H]3Oc2ccc(F)cc2)c1` [Example 155, 1-[(3S,3aR,6S,6aS)-6-(4-Fluoro-phenoxy)-hexahydro-furo[3,2-b]furan-3-yl]-3-[(R)-1-(3-methoxy-phenyl)-ethyl]-urea], the IC50 was 38 nM.

Regarding `C[C@H](NC(=O)N[C@H]1CO[C@H]2[C@@H]1OC[C@@H]2Oc1ccc(F)cc1)C1CCCCC1` [Example 156, 1-((S)-1-Cyclohexyl-ethyl)-3-[(3S,3aR,6S,6aS)-6-(4-fluoro-phenoxy)-hexahydro-furo[3,2-b]furan-3-yl]-urea], the IC50 is 24 nM.

In the case of `O=C(NC1CCN(C(=O)C(F)(F)F)CC1)N[C@H]1CO[C@H]2[C@@H]1OC[C@@H]2Oc1ccc(F)cc1` [Example 157, 1-[(3S,3aR,6S,6aS)-6-(4-Fluoro-phenoxy)-hexahydro-furo[3,2-b]furan-3-yl]-3-[1-(2,2,2-trifluoro-acetyl)-piperidin-4-yl]-urea], the IC50 came to 11 nM.

As to `O=C(NC1CCCc2ccccc21)N[C@H]1CO[C@H]2[C@@H]1OC[C@@H]2Oc1ccc(F)cc1` (stereo partly drawn) [Example 158, 1-[(3S,3aR,6S,6aS)-6-(4-Fluoro-phenoxy)-hexahydro-furo[3,2-b]furan-3-yl]-3-(1,2,3,4-tetrahydro-naphthalen-1-yl)-urea], the IC50 was 27 nM.
